Assay results as given in the supplement of paper PMC4862054.

Columns and labels:
Settings in all cases: incubation time: 72 h
[1] = test system: CAL-51; experiment: normalised viability (% of control), CellTiter-Blue; higher = more viable cells (about 100 = DMSO control)
Experimental: (§1)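 DSRT, CellTiter-Blue viability, 72 h incubation. Signal is normalised to DMSO and benzethonium chloride controls. Value is the normalised response at dose 6.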

[2] = test system: CAL-85-1; experiment: as above
Experimental: as §1

[3] = test system: HDQ-P1; experiment: as above
Experimental: as §1

[4] = test system: DU-4475; experiment: as above
Experimental: as §1

[5] = test system: MDA-MB-453; experiment: as above
Experimental: as §1

[6] = test system: CAL-148; experiment: as above
Experimental: as §1

[7] = test system: MDA-MB-436; experiment: normalised response (% of control), CellTox Green; higher = less cell death (100 = DMSO, 0 = benzethonium chloride kill control)
How it was run: (§2)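 Breast cancer cell lines were exposed for 72 h in 384-well plates to compound at 5 concentrations, 10-fold apart, covering a 10,000-fold range fixed for each compound. Plates were read for CellTox Green fluorescence and CellTiter-Glo luminescence and normalised to 0.1 % DMSO (100) and a positive kill control (0). Each value is the normalised signal at one concentration of the series.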

[8] = test system: CAL-51; experiment: as above
How it was run: as §2

[9] = test system: BT-549; experiment: as above
How it was run: as §2

[10] = test system: HCC1143; experiment: as above
How it was run: as §2

[11] = test system: CAL-85-1; experiment: as above
How it was run: as §2

[12] = test system: MFM-223; experiment: as above
How it was run: as §2

[13] = test system: HDQ-P1; experiment: as above
How it was run: as §2

[14] = test system: DU-4475; experiment: as above
How it was run: as §2

[15] = test system: BT-474; experiment: as above
How it was run: as §2

[16] = test system: MDA-MB-453; experiment: as above
How it was run: as §2

[17] = test system: MDA-MB-231; experiment: as above
How it was run: as §2

[18] = test system: CAL-148; experiment: as above
How it was run: as §2

[19] = test system: MCF-10A; experiment: as above
How it was run: as §2

[20] = test system: HCC1937; experiment: as above
How it was run: as §2

[21] = test system: Hs578T; experiment: as above
How it was run: as §2

[22] = test system: CAL-120; experiment: as above
How it was run: as §2

[23] = test system: HCC1599; experiment: as above
How it was run: as §2

[24] = test system: MDA-MB-468; experiment: as above
How it was run: as §2

[25] = test system: MDA-MB-436; experiment: normalised response (% of control), CellTiter-Glo; higher = more viable cells (100 = DMSO, 0 = benzethonium chloride kill control)
Experimental: (§3)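 DSRT, 72 h incubation, CellTox Green / CellTiter-Glo readout. Signal is normalised to DMSO and benzethonium chloride controls. Value is the normalised response at the highest dose.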

[26] = test system: CAL-51; experiment: as above
Experimental: as §3

[27] = test system: BT-549; experiment: as above
Experimental: as §3

[28] = test system: HCC1143; experiment: as above
Experimental: as §3

[29] = test system: CAL-85-1; experiment: as above
Experimental: as §3

[30] = test system: MFM-223; experiment: as above
Experimental: as §3

[31] = test system: HDQ-P1; experiment: as above
Experimental: as §3

[32] = test system: DU-4475; experiment: as above
Experimental: as §3

[33] = test system: BT-474; experiment: as above
Experimental: as §3

[34] = test system: MDA-MB-453; experiment: as above
Experimental: as §3

[35] = test system: MDA-MB-231; experiment: as above
Experimental: as §3

[36] = test system: CAL-148; experiment: as above
Experimental: as §3

[37] = test system: MCF-10A; experiment: as above
Experimental: as §3

[38] = test system: HCC1937; experiment: as above
Experimental: as §3

[39] = test system: Hs578T; experiment: as above
Experimental: as §3

[40] = test system: SK-BR-3; experiment: as above
Experimental: as §3

[41] = test system: CAL-120; experiment: as above
Experimental: as §3

[42] = test system: HCC1599; experiment: as above
Experimental: as §3

[43] = test system: MDA-MB-468; experiment: as above
Experimental: as §3

## CN1CCC(COc2cnc(-c3cccc(Cn4nc(-c5cccc(C#N)c5)ccc4=O)c3)nc2)CC1 (300 nM)
[1]
  normalised viability: 101%
[2]
  normalised viability: 93.4%
[3]
  normalised viability: 81.3%
[4]
  normalised viability: 105%
[5]
  normalised viability: 94.5%
[6]
  normalised viability: 86.9%

## CN(C)C/C=C/C(=O)Nc1cc2c(Nc3ccc(F)c(Cl)c3)ncnc2cc1O[C@H]1CCOC1 [Afatinib] (300 nM)
[1]
  normalised viability: 101%
[2]
  normalised viability: 52.9%
[3]
  normalised viability: 46.1%
[4]
  normalised viability: 84.6%
[5]
  normalised viability: 36.5%
[6]
  normalised viability: 74.2%

## COc1cc(Nc2ncc3c(n2)-c2ccc(Cl)cc2C(c2c(F)cccc2OC)=NC3)ccc1C(=O)O [Alisertib] (10000 nM)
[7]
  normalised response: 78.5%
[8]
  normalised response: 11.4%
[9]
  normalised response: 63%
[10]
  normalised response: 76%
[11]
  normalised response: 91.2%
[12]
  normalised response: 77.6%
[13]
  normalised response: 94.7%
[14]
  normalised response: 94%
[15]
  normalised response: 43.6%
[16]
  normalised response: 70.1%
[17]
  normalised response: 79.3%
[18]
  normalised response: 63.4%
[19]
  normalised response: -35.5%
[20]
  normalised response: 31.6%
[21]
  normalised response: 114%
[22]
  normalised response: 96.5%
[23]
  normalised response: 93.1%
[24]
  normalised response: -5.36%
[25]
  normalised response: 58.7%
[26]
  normalised response: 43.5%
[27]
  normalised response: 37.2%
[28]
  normalised response: 61.9%
[29]
  normalised response: 90.5%
[30]
  normalised response: 36.7%
[31]
  normalised response: 60.5%
[32]
  normalised response: 74%
[33]
  normalised response: 62%
[34]
  normalised response: 122%
[35]
  normalised response: 64.5%
[36]
  normalised response: 49.7%
[37]
  normalised response: 61.4%
[38]
  normalised response: 64.5%
[39]
  normalised response: 66.9%
[40]
  normalised response: 61.5%
[41]
  normalised response: 62.2%
[42]
  normalised response: 81.5%
[43]
  normalised response: 24.1%

## CN1CC[C@H](c2c(O)cc(O)c3c(=O)cc(-c4ccccc4Cl)oc23)[C@H](O)C1 [Alvocidib] (300 nM)
[1]
  normalised viability: 31.6%
[2]
  normalised viability: 17.3%
[3]
  normalised viability: 24.5%
[4]
  normalised viability: 1.07%
[5]
  normalised viability: 32.7%
[6]
  normalised viability: 17.5%

## Nc1nc(Cl)nc2c1ncn2[C@H]1C[C@H](O)[C@@H](CO)O1 [Cladribine] (30 nM)
[1]
  normalised viability: 109%
[2]
  normalised viability: 102%
[3]
  normalised viability: 90.2%
[4]
  normalised viability: 101%
[5]
  normalised viability: 107%
[6]
  normalised viability: 108%

## Nc1ccn([C@@H]2O[C@H](CO)[C@@H](O)[C@@H]2O)c(=O)n1 [Cytarabine] (300 nM)
[1]
  normalised viability: 51.2%
[2]
  normalised viability: 89.2%
[3]
  normalised viability: 75.1%
[4]
  normalised viability: 72.6%
[5]
  normalised viability: 87.5%
[6]
  normalised viability: 42.2%

## Cc1c2oc3c(C)ccc(C(=O)N[C@@H]4C(=O)N[C@H](C(C)C)C(=O)N5CCC[C@H]5C(=O)N(C)CC(=O)N(C)[C@@H](C(C)C)C(=O)O[C@@H]4C)c3nc-2c(C(=O)N[C@@H]2C(=O)N[C@H](C(C)C)C(=O)N3CCC[C@H]3C(=O)N(C)CC(=O)N(C)[C@@H](C(C)C)C(=O)O[C@@H]2C)c(N)c1=O [Dactinomycin] (30 nM)
[1]
  normalised viability: 4.91%
[2]
  normalised viability: 4.36%
[3]
  normalised viability: 16.6%
[4]
  normalised viability: 0%
[5]
  normalised viability: 7.48%
[6]
  normalised viability: 1.36%

## COc1cccc2c1C(=O)c1c(O)c3c(c(O)c1C2=O)C[C@@](O)(C(=O)CO)C[C@@H]3O[C@H]1C[C@H](N)[C@H](O)[C@H](C)O1 [Doxorubicin] (30 nM)
[1]
  normalised viability: 87.1%
[2]
  normalised viability: 92.2%
[3]
  normalised viability: 75.2%
[4]
  normalised viability: 55%
[5]
  normalised viability: 100%
[6]
  normalised viability: 58.7%

## Cc1ccc(F)c(NC(=O)Nc2ccc(-c3cccc4[nH]nc(N)c34)cc2)c1 [Linifanib] (30 nM)
[1]
  normalised viability: 107%
[2]
  normalised viability: 118%
[3]
  normalised viability: 96.2%
[4]
  normalised viability: 116%
[5]
  normalised viability: 96.4%
[6]
  normalised viability: 94.1%
